Assays:
Assay in all cases: cells
[1] = system: 769-P; format: functional, cell-based, Homo sapiens; settings: Homo sapiens, 769-P
Description: SANGER: Inhibition of human 769-P cell growth in a cell viability assay.

[2] = system: YAPC; format: functional, cell-based, Homo sapiens; settings: Homo sapiens, YAPC;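 further: growth inhibition of YAPC cells, measured with a cell viability assay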
Description: SANGER: Inhibition of human YAPC cell growth in a cell viability assay.

[3] = system: NCI-H2452; format: functional, cell-based, Homo sapiens; settings: Homo sapiens, NCI-H2452;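 further: growth inhibition of NCI-H2452 cells, read out with a cell viability assay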
Description: SANGER: Inhibition of human NCI-H2452 cell growth in a cell viability assay.

[4] = system: HGC-27; format: functional, cell-based, Homo sapiens; settings: Homo sapiens, HGC-27;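 further: growth inhibition of human HGC-27 cells, read out in a cell viability assay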
Description: SANGER: Inhibition of human HGC-27 cell growth in a cell viability assay.

[5] = system: ES8; format: functional, cell-based, Homo sapiens; settings: Homo sapiens, ES8;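 further: growth inhibition of human ES8 cells, read out with a cell viability assay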
Description: SANGER: Inhibition of human ES8 cell growth in a cell viability assay.

[6] = system: RT-112; format: functional, cell-based, Homo sapiens; settings: Homo sapiens, RT-112
Description: SANGER: Inhibition of human RT-112 cell growth in a cell viability assay.

[7] = system: MKN-7; format: functional, cell-based, Homo sapiens; settings: Homo sapiens, MKN-7;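 further: growth inhibition of MKN-7 cells, read out with a cell viability assay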
Description: SANGER: Inhibition of human MKN7 cell growth in a cell viability assay.

[8] = system: NKM-1; format: functional, cell-based; settings: Homo sapiens;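 further: growth inhibition of NKM-1 cells, read out with a cell viability assay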
Description: SANGER: Inhibition of human NKM-1 cell growth in a cell viability assay.

[9] = system: HSC-2; format: functional, cell-based, Homo sapiens; settings: Homo sapiens, HSC-2;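 further: growth inhibition of human HSC-2 cells, read out by a cell viability assay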
Description: SANGER: Inhibition of human HSC-2 cell growth in a cell viability assay.

[10] = system: CAL-12T; format: functional, cell-based, Homo sapiens; settings: Homo sapiens, CAL-12T;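 further: growth inhibition of human CAL-12T cells, read out with a cell viability assay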
Description: SANGER: Inhibition of human CAL-12T cell growth in a cell viability assay.

[11] = system: LU-134-A; format: functional, cell-based; settings: Homo sapiens
Description: SANGER: Inhibition of human LU-134-A cell growth in a cell viability assay.

[12] = system: G-401; format: functional, cell-based, Homo sapiens; settings: Homo sapiens, G-401
Description: SANGER: Inhibition of human G-401 cell growth in a cell viability assay.

[13] = system: NCI-H2052; format: functional, cell-based, Homo sapiens; settings: Homo sapiens, NCI-H2052;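 further: growth inhibition of NCI-H2052 cells, read out with a cell viability assay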
Description: SANGER: Inhibition of human NCI-H2052 cell growth in a cell viability assay.

[14] = system: OAW-42; format: functional, cell-based, Homo sapiens; settings: Homo sapiens, OAW-42;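 further: growth inhibition of OAW-42 cells, read out with a cell viability assay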
Description: SANGER: Inhibition of human OAW-42 cell growth in a cell viability assay.

[15] = system: A673; format: functional, cell-based, Homo sapiens; settings: Homo sapiens, A673;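 further: growth inhibition of human A673 cells, read out through a cell viability assay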
Description: SANGER: Inhibition of human A673 cell growth in a cell viability assay.

[16] = system: COLO-680N; format: functional, cell-based, Homo sapiens; settings: Homo sapiens, COLO-680N;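 further: cell viability assay used to measure inhibition of COLO-680N cell growth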
Description: SANGER: Inhibition of human COLO-680N cell growth in a cell viability assay.

[17] = system: NCI-H510A; format: functional, cell-based; settings: Homo sapiens;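 further: growth inhibition of NCI-H510A cells, read out with a cell viability assay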
Description: SANGER: Inhibition of human NCI-H510A cell growth in a cell viability assay.

[18] = system: RS4-11; format: functional, cell-based; settings: Homo sapiens;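 further: growth inhibition of RS4-11 cells, read out by a cell viability assay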
Description: SANGER: Inhibition of human RS4-11 cell growth in a cell viability assay.

[19] = system: NCI-H441; format: functional, cell-based; settings: Homo sapiens;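 further: growth inhibition of NCI-H441 cells, read out with a cell viability assay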
Description: SANGER: Inhibition of human NCI-H441 cell growth in a cell viability assay.

[20] = system: ES1; format: functional, cell-based, Homo sapiens; settings: Homo sapiens, ES1;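 further: growth inhibition of ES1 cells, read out with a cell viability assay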
Description: SANGER: Inhibition of human ES1 cell growth in a cell viability assay.

[21] = system: SW948; format: functional, cell-based, Homo sapiens; settings: Homo sapiens, SW948;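 further: growth inhibition of SW948 cells, read out with a cell viability assay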
Description: SANGER: Inhibition of human SW948 cell growth in a cell viability assay.

[22] = system: T98G; format: functional, cell-based, Homo sapiens; settings: Homo sapiens, T98G;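 further: growth inhibition of T98G cells, read out by a cell viability assay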
Description: SANGER: Inhibition of human T98G cell growth in a cell viability assay.

[23] = system: NCI-H596; format: functional, cell-based, Homo sapiens; settings: Homo sapiens, NCI-H596;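 further: growth inhibition of NCI-H596 cells, read out with a cell viability assay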
Description: SANGER: Inhibition of human NCI-H596 cell growth in a cell viability assay.

[24] = system: A2058; format: functional, cell-based; settings: Homo sapiens;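 further: reduction of A2058 cell growth, read out with a viability assay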
Description: SANGER: Inhibition of human A2058 cell growth in a cell viability assay.

[25] = system: HCC1187; format: functional, cell-based, Homo sapiens; settings: Homo sapiens, HCC1187;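 further: growth inhibition of HCC1187 cells, read out with a cell viability assay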
Description: SANGER: Inhibition of human HCC1187 cell growth in a cell viability assay.

[26] = system: PFSK-1; format: functional, cell-based, Homo sapiens; settings: Homo sapiens, PFSK-1;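 further: cell viability assay measuring how strongly compounds suppress growth of human PFSK-1 cells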
Description: SANGER: Inhibition of human PFSK-1 cell growth in a cell viability assay.

[27] = system: NCI-H1770; format: functional, cell-based; settings: Homo sapiens;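 further: growth inhibition of NCI-H1770 cells determined with a viability readout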
Description: SANGER: Inhibition of human NCI-H1770 cell growth in a cell viability assay.

[28] = system: LU-99A; format: functional, cell-based, Homo sapiens; settings: Homo sapiens, LU-99A;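 further: growth inhibition of LU-99A cells, read out with a cell viability assay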
Description: SANGER: Inhibition of human LU-99A cell growth in a cell viability assay.

[29] = system: NCI-H2170; format: functional, cell-based, Homo sapiens; settings: Homo sapiens, NCI-H2170;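 further: cell viability assay measuring growth inhibition of human NCI-H2170 cancer cells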
Description: SANGER: Inhibition of human NCI-H2170 cell growth in a cell viability assay.

[30] = system: YKG-1; format: functional, cell-based, Homo sapiens; settings: Homo sapiens, YKG-1;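 further: cell growth inhibition, read out with a viability assay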
Description: SANGER: Inhibition of human YKG-1 cell growth in a cell viability assay.

[31] = system: IGROV-1; format: functional, cell-based, Homo sapiens; settings: Homo sapiens, IGROV-1;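 further: reduction of IGROV-1 cell growth, read out with a viability assay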
Description: SANGER: Inhibition of human IGROV-1 cell growth in a cell viability assay.

[32] = system: MG-63; format: functional, cell-based, Homo sapiens; settings: Homo sapiens, MG-63;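 further: growth inhibition of human MG-63 cells, read out with a cell viability assay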
Description: SANGER: Inhibition of human MG-63 cell growth in a cell viability assay.

[33] = system: GCIY; format: functional, cell-based, Homo sapiens; settings: Homo sapiens, GCIY;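 further: growth inhibition of the human GCIY cell line, read out by a cell viability assay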
Description: SANGER: Inhibition of human GCIY cell growth in a cell viability assay.

[34] = system: HOS; format: functional, cell-based, Homo sapiens; settings: Homo sapiens, HOS;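 further: growth inhibition of human HOS cells, read out with a cell viability assay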
Description: SANGER: Inhibition of human HOS cell growth in a cell viability assay.

[35] = system: LB373-MEL-D; format: functional, cell-based, Homo sapiens; settings: Homo sapiens, LB373-MEL-D;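 further: growth inhibition of the cell line, read out in a cell viability assay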
Description: SANGER: Inhibition of human LB373-MEL-D cell growth in a cell viability assay.

[36] = system: 647-V; format: functional, cell-based, Homo sapiens; settings: Homo sapiens, 647-V;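 further: growth inhibition of 647-V cells, read out with a cell viability assay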
Description: SANGER: Inhibition of human 647-V cell growth in a cell viability assay.

[37] = system: NCI-H1648; format: functional, cell-based, Homo sapiens; settings: Homo sapiens, NCI-H1648;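 further: cell viability assay measuring inhibition of NCI-H1648 cell growth, from the Sanger screening data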
Description: SANGER: Inhibition of human NCI-H1648 cell growth in a cell viability assay.

[38] = system: AU565; format: functional, cell-based, Homo sapiens; settings: Homo sapiens, AU565;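 further: cell viability assay measuring growth inhibition of human AU565 cells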
Description: SANGER: Inhibition of human AU565 cell growth in a cell viability assay.

[39] = system: HCE-4; format: functional, cell-based, Homo sapiens; settings: Homo sapiens, HCE-4;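 further: cell viability assay measuring inhibition of growth in the human HCE-4 cell line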
Description: SANGER: Inhibition of human HCE-4 cell growth in a cell viability assay.

[40] = system: A498; format: functional, cell-based, Homo sapiens; settings: Homo sapiens, A498;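 further: growth inhibition of human A498 cells, read out with a cell viability assay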
Description: SANGER: Inhibition of human A498 cell growth in a cell viability assay.

[41] = system: A253 cell line; format: functional, cell-based, Homo sapiens; settings: Homo sapiens, A253;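 further: growth inhibition of A253 cells, read out with a cell viability assay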
Description: SANGER: Inhibition of human A253 cell growth in a cell viability assay.

[42] = system: OCUB-M; format: functional, cell-based, Homo sapiens; settings: Homo sapiens, OCUB-M;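 further: growth inhibition of the cancer cell line, read out through a cell viability assay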
Description: SANGER: Inhibition of human OCUB-M cell growth in a cell viability assay.

[43] = system: DoTc2-4510; format: functional, cell-based, Homo sapiens; settings: Homo sapiens, DoTc2-4510
[44] = system: J-RT3-T3-5; format: functional, cell-based; settings: Homo sapiens;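 further: cell viability assay measuring growth inhibition of human J-RT3-T3-5 cells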
Description: SANGER: Inhibition of human J-RT3-T3-5 cell growth in a cell viability assay.

[45] = system: A704; format: functional, cell-based, Homo sapiens; settings: Homo sapiens, A704;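 further: growth inhibition of human A704 cells, read out with a cell viability assay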
Description: SANGER: Inhibition of human A704 cell growth in a cell viability assay.

[46] = system: NCI-H2405; format: functional, cell-based, Homo sapiens; settings: Homo sapiens, NCI-H2405;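 further: growth inhibition of the human cell line, read out with a cell viability assay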
Description: SANGER: Inhibition of human NCI-H2405 cell growth in a cell viability assay.

[47] = system: Calu-6; format: functional, cell-based, Homo sapiens; settings: Homo sapiens, Calu-6;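 further: growth of human Calu-6 cells, read out by a cell viability assay, IC50 marking inhibition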
Description: SANGER: Inhibition of human Calu-6 cell growth in a cell viability assay.

[48] = system: KY821; format: functional, cell-based; settings: Homo sapiens;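 further: growth inhibition of human KY821 cells, read out by a cell viability assay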
Description: SANGER: Inhibition of human KY821 cell growth in a cell viability assay.

[49] = system: NCI-H810; format: functional, cell-based, Homo sapiens; settings: Homo sapiens, NCI-H810;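 further: IC50 reflects inhibition of cancer cell line growth, read out with a cell viability assay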
Description: SANGER: Inhibition of human NCI-H810 cell growth in a cell viability assay.

[50] = system: ML-2; format: functional, cell-based; settings: Homo sapiens;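 further: growth inhibition of ML-2 cells, measured with a cell viability readout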
Description: SANGER: Inhibition of human ML-2 cell growth in a cell viability assay.

[51] = system: ASPC1; format: functional, cell-based, Homo sapiens; settings: Homo sapiens, ASPC1;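 further: growth inhibition of AsPC-1 cells, read out with a cell viability assay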
Description: SANGER: Inhibition of human AsPC-1 cell growth in a cell viability assay.

Structure (SMILES): Cn1cncc1[C@@](N)(c1ccc(Cl)cc1)c1ccc2c(c1)c(-c1cccc(Cl)c1)cc(=O)n2C [TIPIFARNIB]
- IC50 [1]: 4190 nM
- IC50 [2]: > 16000 nM
- IC50 [3]: > 16000 nM
- IC50 [4]: 1320 nM
- IC50 [5]: 10400 nM
- IC50 [6]: 382 nM
- IC50 [7]: > 16000 nM
- IC50 [8]: 774 nM
- IC50 [9]: 5200 nM
- IC50 [10]: 760 nM
- IC50 [11]: > 16000 nM
- IC50 [12]: 503 nM
- IC50 [13]: > 16000 nM
- IC50 [14]: 956 nM
- IC50 [15]: 15300 nM
- IC50 [16]: 5630 nM
- IC50 [17]: > 16000 nM
- IC50 [18]: 1940 nM
- IC50 [19]: 13600 nM
- IC50 [20]: 1960 nM
- IC50 [21]: > 16000 nM
- IC50 [22]: 11800 nM
- IC50 [23]: 1820 nM
- IC50 [24]: 11800 nM
- IC50 [25]: 7610 nM
- IC50 [26]: > 16000 nM
- IC50 [27]: > 16000 nM
- IC50 [28]: 7090 nM
- IC50 [29]: 8390 nM
- IC50 [30]: 526 nM
- IC50 [31]: 208 nM
- IC50 [32]: 1840 nM
- IC50 [33]: 12500 nM
- IC50 [34]: 4100 nM
- IC50 [35]: 8850 nM
- IC50 [36]: 2300 nM
- IC50 [37]: 2560 nM
- IC50 [38]: 1790 nM
- IC50 [39]: 3040 nM
- IC50 [40]: > 16000 nM
- IC50 [41]: 10500 nM
- IC50 [42]: 472 nM
- IC50 [43]: 1680 nM
- IC50 [44]: 1320 nM
- IC50 [45]: > 16000 nM
- IC50 [46]: 9600 nM
- IC50 [47]: 1280 nM
- IC50 [48]: > 16000 nM
- IC50 [49]: 1630 nM
- IC50 [50]: < 62.5 nM
- IC50 [51]: > 16000 nM

Structure (SMILES): CCC1=C[C@@H]2CN(C1)Cc1c([nH]c3ccccc13)[C@@](C(=O)OC)(c1cc3c(cc1OC)N(C)[C@H]1[C@@](O)(C(=O)OC)[C@H](OC(C)=O)[C@]4(CC)C=CCN5CC[C@]31[C@@H]54)C2 [VINORELBINE]
- IC50 [1]: 16.9 nM
- IC50 [2]: > 64 nM
- IC50 [3]: > 64 nM
- IC50 [4]: 1.85 nM
- IC50 [5]: 2.72 nM
- IC50 [6]: 3.37 nM
- IC50 [7]: > 64 nM
- IC50 [8]: 4.97 nM
- IC50 [9]: 2.25 nM
- IC50 [10]: 20.8 nM
- IC50 [11]: 47.2 nM
- IC50 [12]: 7.87 nM
- IC50 [13]: 61 nM
- IC50 [14]: 42.5 nM
- IC50 [15]: 7.27 nM
- IC50 [16]: 53.3 nM
- IC50 [17]: 15.5 nM
- IC50 [18]: 7.99 nM
- IC50 [19]: 33.1 nM
- IC50 [20]: 3.78 nM
- IC50 [21]: 19.8 nM
- IC50 [22]: 18.9 nM
- IC50 [23]: > 64 nM
- IC50 [24]: 3.5 nM
- IC50 [25]: 13.9 nM
- IC50 [26]: 20.5 nM
- IC50 [27]: 5.53 nM
- IC50 [28]: 6.24 nM
- IC50 [29]: 11.6 nM
- IC50 [30]: 3.73 nM
- IC50 [31]: 2.2 nM
- IC50 [32]: 2.94 nM
- IC50 [33]: 57.9 nM
- IC50 [34]: 3.22 nM
- IC50 [35]: 46.8 nM
- IC50 [36]: 20.9 nM
- IC50 [37]: 3.92 nM
- IC50 [38]: 8.19 nM
- IC50 [39]: 20.8 nM
- IC50 [40]: 26.2 nM
- IC50 [41]: 1.22 nM
- IC50 [42]: 4.43 nM
- IC50 [43]: 3.59 nM
- IC50 [44]: 6.83 nM
- IC50 [45]: > 64 nM
- IC50 [46]: 50.7 nM
- IC50 [47]: 5.7 nM
- IC50 [48]: > 64 nM
- IC50 [49]: 3.91 nM
- IC50 [50]: 4.32 nM
- IC50 [51]: > 64 nM

Reference: ChEMBL document CHEMBL1201861, “Genomics of Drug Sensitity in Cancer screening data, Wellcome Trust Sanger Institute”
